Test results reported in ChEMBL document CHEMBL4823282, “Novel Broad-Spectrum Antimicrobial Peptide Derived from Anoplin and Its Activity on Bacterial Pneumonia in Mice” (J Med Chem, 2021).
pIC50: −log10 of the molar value. The source made the active and inactive calls. No cut-off for these calls is given here. Where a SMILES comes first, the peptide text is derived from it. Bridges are numbered along the chain shown (N, C = ends). [ ]: non-standard residue; d: D form. The star is where a group is joined. X1 = CC[C@H](C)CCCCC(=O)*; Dab = NCC[C@H](N)C(=O)O

Key:
Staphylococcus aureus [1] = experiment: Antibacterial activity against Staphylococcus aureus ATCC 25923 incubated with 2000 ug/ml trypsin for 6 hrs followed by bacterial addition and measured after 18 hrs by CLSI based broth dilution method; format: functional, organism-based; settings: dose 2000.0 µg/ml, time 23.0 hrs
Cell membrane [2] = experiment: Induction of outer membrane permeabilization in Klebsiella pneumoniae ATCC 700603 at 4MIC measured within 20 mins by N-phenylnaphthylamine dye based fluorescent method; format: subcellular; settings: Klebsiella pneumoniae 700603
Klebsiella pneumoniae [3] = experiment: Antibacterial activity against Klebsiella pneumoniae ATCC 700603 infected in BALB/C mouse assessed as reduction in bacterial load at 5 mg/kg, ip by hematoxylin and eosin staining based assay; format: functional, organism-based
[4] = Toxicity in BALB/C mouse infected with Klebsiella pneumoniae ATCC 700603 assessed as hepatic hemorrhage at 5 mg/kg, ip by hematoxylin and eosin staining based assay; format: organism-based; settings: in vivo
Klebsiella pneumoniae [5] = experiment: Antibiofilm activity against Klebsiella pneumoniae ATCC 700603 at 2 to 4 times MIC incubated for 24 hrs by crystal violet staining based assay; format: functional, organism-based
Cell membrane [6] = experiment: Disruption of membrane integrity in Klebsiella pneumoniae ATCC 700603 assessed as membrane cracking at 1 times MIC incubated for 0.5 to 2 hrs by scanning electron microscopy; format: subcellular; settings: Klebsiella pneumoniae 700603, time 0.5-2 hrs
Klebsiella pneumoniae [7] = experiment: Reduction in inflammatory cell infiltration in lung of BALB/C mouse infected with Klebsiella pneumoniae ATCC 700603 at 5 mg/kg, ip by hematoxylin and eosin staining based assay; format: functional, organism-based
Klebsiella pneumoniae [8] = experiment: Antibacterial activity against Klebsiella pneumoniae ATCC 700603 incubated with 2000 ug/ml chymotrypsin for 6 hrs followed by bacterial addition and measured after 18 hrs by CLSI based broth dilution method; format: functional, organism-based; settings: dose 2000.0 µg/ml, time 23.0 hrs
[9] = Toxicity in BALB/C mouse assessed as effect on liver at 19 mg/kg, ip administered as single dose by hematoxylin and eosin staining based assay; format: organism-based; settings: in vivo
Escherichia coli [10] = experiment: Antibiofilm activity against Escherichia coli ATCC 25922 incubated for 24 hrs by crystal violet staining assay; format: functional, organism-based
Klebsiella pneumoniae [11] = experiment: Antibiofilm activity against Klebsiella pneumoniae ATCC 700603 incubated for 24 hrs by crystal violet staining based assay; format: functional, organism-based
Escherichia coli [12] = experiment: Synergistic antibacterial activity against Escherichia coli ATCC 25922 at 2 times MIC incubated for 18 to 24 hrs in presence of 2 times MIC of gentamycin by broth microdilution assay based checkerboard assay; format: functional; settings: time 18-24 hrs
Lipopolysaccharide (LPS) = experiment: Binding affinity to LPS (unknown origin) assessed as bacterial killing at 2 times MIC preincubated for 1 hr followed by Escherichia coli ATCC 25922 addition and measured after 2 hrs by absorbance method relative to polymyxin B; settings: time 3.0 hrs
[13] = Toxicity in BALB/C mouse assessed as effect on spleen at 19 mg/kg, ip administered as single dose by hematoxylin and eosin staining based assay; format: organism-based; settings: in vivo
Escherichia coli [14] = experiment: Synergistic antibacterial activity against Escherichia coli ATCC 25922 at 2 times MIC incubated for 18 to 24 hrs in presence of 2 times MIC of polymyxin B by broth microdilution assay based checkerboard assay; format: functional; settings: time 18-24 hrs
Staphylococcus aureus [15] = experiment: Antibacterial activity against Staphylococcus aureus ATCC 25923 incubated with 0.2 to 0.02 ug/ml chymotrypsin for 6 hrs followed by bacterial addition and measured after 18 hrs by CLSI based broth dilution method; format: functional, organism-based; settings: dose 0.2-0.02 µg/ml
Staphylococcus aureus [16] = experiment: Antibacterial activity against Staphylococcus aureus ATCC 25923 incubated with 0.2 to 0.02 ug/ml trypsin for 6 hrs followed by bacterial addition and measured after 18 hrs by CLSI based broth dilution method; format: functional, organism-based; settings: dose 0.2-0.02 µg/ml, time 23.0 hrs
Klebsiella pneumoniae [17] = experiment: Antibacterial activity against Klebsiella pneumoniae ATCC 700603 incubated with 0.2 to 0.02 ug/ml trypsin for 6 hrs followed by bacterial addition and measured after 18 hrs by CLSI based broth dilution method; format: functional, organism-based; settings: dose 0.2-0.02 µg/ml, time 23.0 hrs
Staphylococcus aureus [18] = experiment: Disruption of membrane integrity in Staphylococcus aureus ATCC 25923 assessed as content leakage at 1 times MIC incubated for 0.5 to 2 hrs by scanning electron microscopy; format: functional, organism-based; settings: time 0.5-2 hrs
[19] = Induction of inflammation in BALB/C mouse at 82 mg/kg, ip administered as single dose by hematoxylin and eosin staining based assay; format: organism-based; settings: in vivo
Klebsiella pneumoniae [20] = experiment: Antibacterial activity against Klebsiella pneumoniae ATCC 700603 infected in BALB/C mouse assessed as reduction in bacterial load at 5 to 10 mg/kg, ip by hematoxylin and eosin staining based assay; format: functional, organism-based; settings: dose 5-10 mg/kg
Staphylococcus aureus [21] = experiment: Disruption of membrane integrity in Staphylococcus aureus ATCC 25923 assessed as membrane creeping at 1 times MIC incubated for 0.5 to 2 hrs by scanning electron microscopy; format: functional, organism-based; settings: time 0.5-2 hrs
[22] = Toxicity in BALB/C mouse assessed as effect on lung at 19 mg/kg, ip administered as single dose by hematoxylin and eosin staining based assay; format: organism-based; settings: in vivo
[23] = Induction of nephrotoxicity in BALB/C mouse at 82 mg/kg, ip administered as single dose by hematoxylin and eosin staining based assay; format: organism-based; settings: in vivo
Pseudomonas aeruginosa [24] = experiment: Antibacterial activity against Pseudomonas aeruginosa ATCC 27853 at sub-MIC level after 15 passages by broth microdilution assay; format: functional, organism-based
[25] = Stability in BALB/C mouse serum measured up to 1440 mins by HPLC analysis; format: ADME, cell-free
Klebsiella pneumoniae [26] = experiment: Synergistic antibacterial activity against Klebsiella pneumoniae ATCC 700603 at 2 times MIC incubated for 18 to 24 hrs in presence of 2 times MIC of polymyxin B by broth microdilution assay based checkerboard assay; format: functional; settings: time 18-24 hrs
[27] = Toxicity in BALB/C mouse assessed as mouse death at 15 to 25 mg/kg, ip measured after 24 hrs; format: organism-based; settings: in vivo, dose 15-25 mg/kg
Klebsiella pneumoniae [28] = experiment: Antibacterial activity against Klebsiella pneumoniae ATCC 700603 infected in BALB/C mouse assessed as reduction in bacterial load in lung at 10 mg/kg, ip measured within 24 hrs by agar plate counting method (reference value: 2.77 x 10^7 CFU/mg); format: functional
HK-2 = experiment: Cytotoxicity against human HK2 cells incubated for 12 hrs by MTT assay; format: cell-based; settings: HK-2, 12 h
Cell membrane [29] = experiment: Induction of outer membrane permeabilization in Klebsiella pneumoniae ATCC 700603 at 2 to 4 MIC by N-phenylnaphthylamine dye based fluorescent method; format: subcellular; settings: Klebsiella pneumoniae 700603, 2 to 4 M
Staphylococcus aureus [30] = experiment: Bactericidal activity against Staphylococcus aureus ATCC 25923 at 2MIC measured within 3 hrs by time-kill assay relative to control; format: functional
Klebsiella pneumoniae [31] = experiment: Disruption of membrane integrity in Klebsiella pneumoniae ATCC 700603 assessed as content leakage at 1 times MIC incubated for 0.5 to 2 hrs by scanning electron microscopy; format: functional, organism-based; settings: time 0.5-2 hrs
Pseudomonas aeruginosa [32] = experiment: Synergistic antibacterial activity against Pseudomonas aeruginosa ATCC 27853 at 2 times MIC incubated for 18 to 24 hrs in presence of 2 times MIC of polymyxin B by broth microdilution assay based checkerboard assay; format: functional; settings: time 18-24 hrs
Cell membrane [33] = experiment: Disruption of membrane integrity in Klebsiella pneumoniae ATCC 700603 assessed as membrane shrinking at 1 times MIC measured within 0.5 to 2 hrs by scanning electron microscopy; format: subcellular; settings: Klebsiella pneumoniae 700603, time 0.5-2 hrs

## CC[C@H](C)CCCCC(=O)N[C@@H](CCN)C(=O)N[C@H](C(=O)N[C@@H](CCN)C(=O)N[C@H]1CCNC(=O)[C@H]([C@@H](C)O)NC(=O)[C@H](CCN)NC(=O)[C@H](CCN)NC(=O)[C@H](CC(C)C)NC(=O)[C@@H](Cc2ccccc2)NC(=O)[C@H](CCN)NC1=O)[C@@H](C)O (X1-[Dab]T[Dab][Dab][Dab][dF]L[Dab][Dab]T; lactam 4-C)
Staphylococcus aureus [1]
  Activity: Active
Cell membrane [2]
  Activity: Active
Klebsiella pneumoniae [3]
  Activity: inactive
[4]
  Activity: Toxic
Klebsiella pneumoniae [5]
  Activity: Active
Cell membrane [6]
  Activity: Active
Klebsiella pneumoniae [7]
  Activity: inactive
Klebsiella pneumoniae [8]
  Activity: Active

## NCCCC[C@H](NC(=O)[C@H](CCCCN)NC(=O)[C@H](Cc1c[nH]c2ccccc12)NC(=O)[C@H](CCCCN)NC(=O)[C@H](CCCCN)NC(=O)[C@H](Cc1c[nH]c2ccccc12)NC(=O)[C@H](Cc1c[nH]c2ccccc12)NC(=O)[C@@H](N)CCCCN)C(=O)N[C@@H](Cc1c[nH]c2ccccc12)C(=O)N[C@@H](Cc1c[nH]c2ccccc12)C(N)=O (H-KWWKKWKKWW-NH2)
[9]
  Activity: Toxic
Escherichia coli [10]
  Activity: Dose-Dependent Effect
Klebsiella pneumoniae [11]
  Activity: Dose-Dependent Effect
Escherichia coli [12]
  FIC: 0.5625
Lipopolysaccharide (LPS)
  fold change (FC): 2
[13]
  Activity: Toxic
Escherichia coli [14]
  FIC: 0.3125
Staphylococcus aureus [15]
  Activity: inactive
Staphylococcus aureus [16]
  Activity: Active
Klebsiella pneumoniae [17]
  Activity: Active
Staphylococcus aureus [18]
  Activity: Active
[19]
  Activity: Toxic
Klebsiella pneumoniae [20]
  Activity: Active
Staphylococcus aureus [21]
  Activity: Active
[22]
  Activity: Toxic
[23]
  Activity: Toxic
Pseudomonas aeruginosa [24]
  Activity: Active
[25]
  half-life: 50.1 min
Klebsiella pneumoniae [26]
  FIC: 0.3125
[27]
  Activity: Toxic
Klebsiella pneumoniae [28]
  Activity: 3.26 10^3CFU/mg
HK-2
  pIC50: 4.20
Cell membrane [29]
  Activity: Active
Staphylococcus aureus [30]
  Activity: 100%
Klebsiella pneumoniae [31]
  Activity: Active
Pseudomonas aeruginosa [32]
  FIC: 0.5625
Cell membrane [33]
  Activity: Active
